Laboratory results reported in patent publication US5010204A, “Acetazolamide-related compounds, process for their preparation, and pharmaceutical composition containing the same” (Instituto Chimico Internazionale Dr. Giuseppe Rende S.r.l., priority 1988, dated 1991).
In brackets after ≈: the same amount, converted by molar mass.

What was measured:
[1] = in words; cited from earlier work
[2] = in words; cited from earlier work; remark: listed apart in the source
carbonic anhydrase = assay: in vitro inhibition of carbonic anhydrase (enzymic activity), CO2-electrode potentiometric analysis; type: biochemical; conditions: samples at 10^-7, 3×10^-7, 6×10^-7 and 10^-6 molar; read-out: I50 (molar concentration that gives a 50% reduction of enzymic activity)
From the text: For determining the in vitro activities, samples were employed at molar concentrations of 10^-7, 3×10^-7, 6×10^-7, and 10^-6, and the results given in Table 1 were obtained by CO2 -electrode potentiometric analysis.

[3] = solubility in buffer pH 7.6; type: physicochemical; conditions: aqueous buffer
[4] = system: ocular pressure in rabbit; assay: decrease in ocular pressure in rabbit, transient ocular hypertension model (5% glucose infusion), topical instillation; type: in vivo; set-up: endoocular pressure, 10' OS / endoocular pressure, 20' OC / endoocular pressure, 40' OS: unit not given beside the values; conditions: for endoocular pressure, 10' OS / endoocular pressure, 20' OS / endoocular pressure, 40' OS: left eye (diluent-treated fellow eye, control); for endoocular pressure, 10' OS / endoocular pressure, 10' OD: 10 minutes; for endoocular pressure, 20' OS / endoocular pressure, 20' OC: 20 minutes; for endoocular pressure, 40' OS / endoocular pressure, 40' OD: 40 minutes; for endoocular pressure, 10' OD / endoocular pressure, 20' OC / endoocular pressure, 40' OD: right eye (drug-treated, 2 drops of 2% solution)
Protocol: In vivo experiments were carried out on the compounds of the present invention, and, amongst the others, those experiments whose results are reported in the following Table 2, concerning the decrease in the ocular pressure in rabbit.
For determining such results a transient ocular hypertension model was employed, said hypertension being obtained in rabbit through rapid venous infusion of suitable volumes (20 ml/kg) of 5% glucose solution.
Albino rabbits from the same farm in New Zealand were employed, whose weights were between 2,500 e 3,000 g. Each treatment was carried out on a group of six animals.
The drug was prepared in a phosphate buffer water solution at pH 7.5. The solution was made isotonic with sodium chloride and the possibility of microbial contamination was prevented through the addition of benzalkonium chloride. In case of compounds of low solubility, a dispersing suspension of the finely divided compound in methyl cellulose was prepared. The solution (or the suspension) was instilled into the right eye of each animal in the amount of 2 drops of 2% solution, at an interval of 2 minutes from one another. The left eye was treated with an equal volume of diluent.
The measurements of pressure were performed while animals were in superficial local anaesthesia (0.4% benoxinate), by means of a McKay-Marg electronic pressure gage, at the times -30', 0', 10', 20', 40'.
The following table reports the endoocular pressure measured after 10, 20, and 40 minutes both in the right and in the left eye: the higher the difference in the ocular pressure between the treated eye and the untreated eye, the higher the efficiency of the drug considered.

[5] = stability of the product (hydrolysis), observed on preparation; type: physicochemical; conditions: residue after reaction with liquid ammonia

SMILES | water solubility [1] | absorption when instilled in the eye [2] | IC50 (carbonic anhydrase) [nM] | solubility [3] [µg/mL] | endoocular pressure, 10' OS [4] | endoocular pressure, 20' OS [4] | endoocular pressure, 40' OS [4] | endoocular pressure, 10' OD [4] | endoocular pressure, 20' OC [4] | endoocular pressure, 40' OD [4] | stability [5]
CC(=O)Nc1nnc(S(N)(=O)=O)s1 [ACETAZOLAMIDE, 5-acetamido-2-sulfonamido-1,3,4-thiadiazole] | practically insoluble | poor absorption |  |  |  |  |  |  |  |  | 
COC(=O)CCC(=O)Nc1nnc(S(N)(=O)=O)s1 [RENDE 023, 5-methylsuccinoylamino-2-sulfonamido-1,3,4-thiadiazole] |  |  | 550 | 740 (≈ 2.51 mM) | 25.5 | 20.17 | 16.67 | 25.33 | 19.5 | 16.5 | 
COC(=O)CCC(=O)N=c1sc(S(N)(=O)=O)nn1C [RENDE 024, 5-Methylsuccinoylamino-4-methyl-2-sulfonamido-1,3,4-thiadiazole] |  |  | 450 | 2250 (≈ 7.3 mM) | 25.83 | 21.5 | 17.83 | 24.67 | 20.33 | 17.33 | 
NCCCCC(=O)Nc1nnc(S(N)(=O)=O)s1 [RENDE 027, 5-(5-Aminovaleroylamino)-2-sulfonamido-1,3,4-thiadiazole] |  |  | 440 | 208 (≈ 0.745 mM) | 26.17 | 21.5 | 17.33 | 24.0 | 20.83 | 16.83 | 
CCOC(=O)CCC(=O)Nc1nnc(S(N)(=O)=O)s1 [RENDE 029, 5-Ethylsuccinoylamino-2-sulfonamido-1,3,4-thiadiazole] |  |  |  | 2760 (≈ 8.95 mM) | 25.67 | 20.67 | 17.67 | 20.33 | 17.33 | 15.67 | 
CCCCCOC(=O)CCC(=O)Nc1nnc(S(N)(=O)=O)s1 [RENDE 032, 5-Pentylsuccinoylamino-2-sulfonamido-1,3,4-thiadiazole] |  |  | 390 | 470 (≈ 1.34 mM) | 24.5 | 21.33 | 18.83 | 22.67 | 20.0 | 17.83 | 
CC(C)COC(=O)CCC(=O)Nc1nnc(S(N)(=O)=O)s1 [RENDE 034, 5-Isobutylsuccinoylamino-2-sulfonamido-1,3,4-thiadiazole] |  |  | 370 | 1240 (≈ 3.69 mM) | 25.67 | 21.17 | 17.17 | 21.5 | 19.0 | 16.67 | 
CCCCCOC(=O)CCC(=O)N=c1sc(S(N)(=O)=O)nn1C [RENDE 035, 5-Pentylsuccinoylamino-4-methyl-2-sulfonamido-1,3,4-thiadiazole] |  |  | 307 | 535 (≈ 1.47 mM) | 25.17 | 22.0 | 18.0 | 24 | 20.67 | 17.83 | 
NS(=O)(=O)c1nnc(NC(=O)CCC(=O)O)s1 [RENDE 037, 5-succinoylamino-2-sulfonamido-1,3,4-thiadiazolic acid] |  |  |  | 28700 (≈ 102 mM) | 26.0 | 21.67 | 19.0 | 19.33 | 17.17 | 15.67 | 
NS(=O)(=O)c1nnc(NC(=O)CCC(=O)OCC(F)(F)F)s1 [Rende 039, 5-Trifluoroethylsuccinoylamino-2-sulfonamido-1,3,4-thiadiazole] |  |  |  |  |  |  |  |  |  |  | very unstable and becomes very easily hydrolysed
